{"source": "patent US12441679B2", "about": "“Acrylamide-substituted indane compounds and therapeutic use thereof” (Sanofi, priority 2020, dated 2025)", "note": "pIC50: −log10 of the molar value.", "data": [{"test_system": "YAP1-TEAD and TAZ-TEAD activity (TEAD responsive promoter element)", "test": "TEAD-Luciferase Reporter Assay (8XGTIIC-Luciferase construct stably integrated in tumor cell lines)", "type": "cell-based, human", "details": "8XGTIIC-Luciferase reporter in tumor cell lines, 48 hrs compound treatment, 10 doses 1-10000 nM", "excerpt": "(§1) TEAD-Luciferase Reporter Assay\n(§2) Luciferase-based gene reporter assays were used, employing the TEAD responsive promoter element that are stably integrated to different human tumor cell lines in order to monitor YAP1-TEAD and TAZ-TEAD activity and to study YAP1/TAZ-TEAD activity modulation by small molecule compounds. Luciferase-based gene reporter assays employing the GAPDH promoter element and stably integrated to different human tumor cell lines are used as counter screen control cell lines.\n(§3) Tumor cell lines with stable integration of the 8XGTIIC-Luciferase construct (Dupont et al., Nature 2011) or the GAPDH-Luciferase control plasmid, are seeded in culture medium in 96-well plates at a density of 8000 cells/well. Following an overnight incubation in a 37° C., 5% CO2 growth chamber, cells are treated with compounds described above at 10 doses ranging between 1 and 10000 nM for 48 hrs. After compound incubation, cells are lysed with Bright-Glo Luciferase Assay System (Promega E2620) and luciferase activity is measured using a luminescent plate reader.\n(§4) The inhibitory activity of the compounds with respect to luciferase activity is given by the concentration which inhibits 50% of activity of non-treated cells. IC50s are determined with a nonlinear regression model on XLfit software analysis (IDBS, UK).", "values": [{"compound": "(R)—N-(1-((3-(trifluoromethyl)phenyl)amino)-2,3-dihydro-1H-inden-5-yl)acrylamide [Example 2]", "pIC50": 7.42}]}, {"test_system": "YAP1-TEAD and TAZ-TEAD activity (TEAD responsive promoter element)", "test": "TEAD-Luciferase Reporter Assay (8XGTIIC-Luciferase construct stably integrated in tumor cell lines)", "type": "cell-based, human", "details": "Homo sapiens; 8XGTIIC-Luciferase reporter in tumor cell lines, 48 hrs compound treatment, 10 doses 1-10000 nM", "excerpt": "as §1, §2, §3, §4", "values": [{"compound": "C=CC(=O)Nc1ccc2c(c1)C(Oc1cc(F)cc(F)c1)CC2", "note": "(stereo not shown) [Example 43, N-(3-(3,5-difluorophenoxy)-2,3-dihydro-1H-inden-5-yl)acrylamide]", "pIC50": 6.85}, {"compound": "C=CC(=O)Nc1ccc2c(c1)C(OCCCCF)CC2", "note": "(stereo not shown) [Example 34, N-(3-(4-fluorobutoxy)-2,3-dihydro-1H-inden-5-yl)acrylamide]", "pIC50": 5.60}, {"compound": "C=CC(=O)Nc1ccc2c(c1)C(Oc1ccc(F)c(F)c1)CC2", "note": "(stereo not shown) [Example 40, N-(3-(3,4-difluorophenoxy)-2,3-dihydro-1H-inden-5-yl)acrylamide]", "pIC50": 7.82}, {"compound": "C=CC(=O)Nc1ccc2c(c1)C(OCC(F)(F)F)CC2", "note": "(stereo not shown) [Example 74, N-(3-(2,2,2-trifluoroethoxy)-2,3-dihydro-1H-inden-5-yl)acrylamide]", "pIC50": 5.43}, {"compound": "C=CC(=O)Nc1ccc2c(c1)[C@H](Oc1ccc(C(F)(F)F)cc1)CC2", "note": "(single isomer, unassigned) [Example 87]", "pIC50": 7.55}, {"compound": "C=CC(=O)Nc1ccc2c(c1)C(Oc1cccc(C(=O)OC)c1)CC2", "note": "(stereo not shown) [Example 47, methyl 3-[6-(prop-2-enoylamino)-2,3-dihydro-1H-inden-1-yl]oxybenzoate]", "pIC50": 5.36}, {"compound": "C=CC(=O)Nc1ccc2c(c1)CCC2Nc1cccc(C(=O)OC)c1", "note": "(stereo not shown) [Example 22, methyl-3-((5-acrylamido-2,3-dihydro-1H-inden-1-yl)amino)benzoate]", "pIC50": "< 5.00"}, {"compound": "C=CC(=O)Nc1ccc2c(c1)C(C)(C)CC2Nc1cccc(C(F)(F)F)c1", "note": "(stereo not shown) [Example 65, N-(3,3-dimethyl-1-((3-(trifluoromethyl)phenyl)amino)-2,3-dihydro-1H-inden-5-yl)acrylamide]", "pIC50": 5.73}, {"compound": "C=CC(=O)Nc1ccc2c(c1)C(Oc1ccc(F)cc1F)CC2", "note": "(stereo not shown) [Example 44, N-(3-(2,4-difluorophenoxy)-2,3-dihydro-1H-inden-5-yl)acrylamide]", "pIC50": 7.42}, {"compound": "C=CC(=O)N(C)c1ccc2c(c1)CC(C)C2Nc1cccc(C(F)(F)F)c1", "note": "(stereo not shown) [Example 93, N-methyl-N-(2-methyl-1-((3-(trifluoromethyl)phenyl)amino)-2,3-dihydro-1H-inden-5-yl)acrylamide]", "pIC50": 6.29}, {"compound": "C=CC(=O)Nc1ccc2c(c1)C(NCc1ccccc1)CC2", "note": "(stereo not shown) [Example 23, N-(3-(benzylamino)-2,3-dihydro-1H-inden-5-yl)acrylamide]", "pIC50": 5.02}, {"compound": "C=CC(=O)Nc1ccc2c(c1)CCC2Nc1ccc(F)cc1", "note": "(stereo not shown) [Example 5, N-(1-((4-fluorophenyl)amino)-2,3-dihydro-1H-inden-5-yl)acrylamide]", "pIC50": 7.54}, {"compound": "C=CC(=O)Nc1ccc2c(c1)[C@@H](Nc1cccc(C(F)(F)F)c1)[C@H](O)C2", "note": "(racemic) [Example 96, N-[rac-(2R,3R)-2-hydroxy-3-[3-(trifluoromethyl)anilino]-2,3-dihydro-1H-inden-5-yl]acrylamide]", "pIC50": 5.70}, {"compound": "C=CC(=O)Nc1ccc2c(c1)[C@@H](OC)C[C@H]2Nc1cccc(C(F)(F)F)c1", "note": "(relative stereo) [Example 94, N-[(cis)-3-methoxy-1-[3-(trifluoromethyl)anilino]-2,3-dihydro-1H-inden-5-yl]acrylamide]", "pIC50": 6.40}, {"compound": "C=CC(=O)Nc1ccc2c(c1)CCC2Nc1ccc(C(F)(F)F)nc1", "note": "(stereo not shown) [Example 20, N-(1-((6-(trifluoromethyl)pyridin-3-yl)amino)-2,3-dihydro-1H-inden-5-yl)acrylamide]", "pIC50": 6.45}, {"compound": "C=CC(=O)Nc1ccc2c(c1)CC[C@H]2Oc1cccc(C(F)(F)F)c1", "note": "(single isomer, unassigned) [Example 85]", "pIC50": 7.38}, {"compound": "C=CC(=O)Nc1ccc2c(c1)C(C)(C)CC2Nc1ccc(C(F)(F)F)cc1", "note": "(stereo not shown) [Example 66, N-(3,3-dimethyl-1-((4-(trifluoromethyl)phenyl)amino)-2,3-dihydro-1H-inden-5-yl)acrylamide]", "pIC50": 6.06}, {"compound": "C=CC(=O)Nc1ccc2c(c1)C(Oc1cccc(Cl)c1)CC2", "note": "(stereo not shown) [Example 78, N-(3-(3-chlorophenoxy)-2,3-dihydro-1H-inden-5-yl)acrylamide]", "pIC50": 7.28}]}]}
